Results: patent US8679859B2, “Method for functionalizing materials and devices comprising such materials” (State of Oregon by and through the State Board of Higher …, priority 2007, dated 2014)

Assays:
[1] = molecular target: T1, jack bean lectin (Con A) (Canavalia ensiformis, UniProt P02866); assay: Carbohydrate microarray on PEO-coated glass slides, fluorescence-tagged lectin binding; conditions: lectin 10 μg/ml, FIG. 31
T1 construct: purchased Molecular Probes

[2] = molecular target: T2, peanut agglutinin (PNA) (Arachis hypogaea, UniProt P02872); assay: as above; conditions: lectin 10 μg/ml, FIG. 30
T2 construct: purchased Molecular Probes
T2 sequence (P02872 24-273): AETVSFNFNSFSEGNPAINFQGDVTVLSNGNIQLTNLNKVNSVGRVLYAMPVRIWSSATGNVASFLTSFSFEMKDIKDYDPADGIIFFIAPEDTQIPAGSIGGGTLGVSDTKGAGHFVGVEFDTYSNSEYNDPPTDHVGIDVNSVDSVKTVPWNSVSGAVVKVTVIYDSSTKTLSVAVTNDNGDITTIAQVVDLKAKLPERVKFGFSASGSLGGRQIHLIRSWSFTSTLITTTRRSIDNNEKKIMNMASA

[3] = molecular target: Con A (Canavalia ensiformis, UniProt P02866); conditions: free carbohydrate with Con A, isothermal microcalorimetry, Mandal et al.; cited from earlier work
[4] = molecular target: soybean agglutinin (SBA) (Glycine max, UniProt P05046); assay: Carbohydrate microarray on PEO-coated glass slides, fluorescence-tagged lectin binding; conditions: lectin 10 μg/ml, FIG. 32
Sequence of soybean agglutinin (SBA) (P05046 33-285): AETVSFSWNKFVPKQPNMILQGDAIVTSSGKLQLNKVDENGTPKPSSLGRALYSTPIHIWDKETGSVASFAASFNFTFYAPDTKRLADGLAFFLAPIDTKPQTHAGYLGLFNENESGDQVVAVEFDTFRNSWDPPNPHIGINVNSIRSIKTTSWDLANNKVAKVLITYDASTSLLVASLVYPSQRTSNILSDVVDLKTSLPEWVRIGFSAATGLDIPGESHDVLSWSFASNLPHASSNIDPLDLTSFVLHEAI
Experimental: The slides were subsequently irradiated under UV (7 min), and washed with PBS (pH 7.4) containing 0.1% Tween® 20 for 30 minutes and then rinsed with water to remove excess carbohydrates. After drying under a stream of nitrogen, the slides were first incubated with a solution of PBS (pH 7.4) containing 0.1% Tween® 20 and 3% BSA (w/v) for 30 minutes, and then washed with PBS (pH 7.4) containing 0.1% Tween® 20 for 20 minutes. After drying under a stream of nitrogen, the slides were incubated with Alexa Fluo 647-labeled lectins (10 μg/ml) in PBS (pH 7.4) containing 0.1% Tween® 20 overnight at room temperature. The unbound lectins were removed by gentle shaking in the same buffer for 20 minutes, after which time the slides were scanned (Ex: 633 nm; Em: 650-750 nm).
Following array preparation, binding analysis of the surfaces was performed. Fluorescence-tagged lectins were used, and fluorescence imaging was employed in developing the array binding patterns. Four different lectins were assayed: Griffonia simplicifolia II (GSII), peanut agglutinin (PNA), jack bean lectin (Con A), and soybean agglutinin (SBA).

Compound | Con A binding pattern on microarray (fluorescence) [1] | PNA binding pattern on microarray (fluorescence) [2] | other results
[N-]=[N+]=Nc1c(F)c(F)c(C(=O)NCCOCCOCCO[C@H]2OC(CO)[C@@H](O)C(O)C2O)c(F)c1F (stereo partly drawn) [α-D-mannoside structures] | specificity of Con A for binding |  | 
[N-]=[N+]=Nc1c(F)c(F)c(C(=O)NCCOCCOCCO[C@@H]2OC(CO)[C@@H](O)C(O)C2O)c(F)c1F (stereo partly drawn) [β-D-glucoside] | low binding |  | 
cellobiose |  | lesser amounts of binding | 
OC[C@H]1O[C@H](O[C@H]2[C@H](O)[C@@H](CO)OC(O)[C@H]2O)[C@@H](O)[C@@H](O)[C@@H]1O (stereo partly drawn) [α-1,3-mannobiose] |  |  | Ka [3]: 142000 M⁻¹
[N-]=[N+]=Nc1c(F)c(F)c(C(=O)NCCOCCOCCO[C@@H]2OC(CO)[C@@H](O[C@@H]3OC(CO)[C@H](O)C(O)C3O)C(O)C2O)c(F)c1F (stereo partly drawn) [lactose] |  | primary ligand | SBA binding pattern on microarray (fluorescence) [4]: showed binding
